{
  "source": "paper PMC7229617",
  "about": "“N-alkylisatin-based microtubule destabilizers bind to the colchicine site on tubulin and retain efficacy in drug resistant acute lymphoblastic leukemia cell lines with less in vitro neurotoxicity” (Cancer Cell International, 2020)",
  "test_system": "T1, tubulin",
  "T1 construct": "gene TUBA1B; pure tubulin, alpha-beta heterodimer (colchicine site at alpha/beta interface); mixture of brain isotypes",
  "assay": "fluorescence competition (displacement of MTC), Equigra V5.[…] fit",
  "assay_type": "binding",
  "conditions": "colchicine site, competitive with MTC; 10 mM phosphate pH 7, 1 mM EDTA, 1.5 mM MgCl2, 0.1 mM GTP, 25 °C; printed exponent ambiguous (10^5 or 10^4), unreliable",
  "data": [
    {"smiles": "O=C1C(=O)N(Cc2cccc3ccccc23)c2c(Br)cc(Br)cc21", "note": "[N1M-isatin, 5,7-dibromo-N-(naphthalene-1-ylmethyl)isatin]", "values": [
      {"measurement": "Binding affinity (M^-1) ± SEM^a", "value": "1.4 ± 0.2 × 10^5(× 10^4)"}
    ]}
  ]
}
